Test results from ChEMBL document CHEMBL1147418, “Rational design and synthesis of selective BACE-1 inhibitors” (Bioorg Med Chem Lett, 2004).

What was measured:
[1] = target: T1, Beta-secretase 1 (Homo sapiens, UniProt P56817); assay: Tested for inhibition of Beta-secretase 1 (BACE 1) expressed in insect cell using baculovirus
[2] = target: T2, Renin (Homo sapiens, UniProt P00797); assay: Compound was tested for inhibition of human renin
T2 sequence (P00797 whole entry): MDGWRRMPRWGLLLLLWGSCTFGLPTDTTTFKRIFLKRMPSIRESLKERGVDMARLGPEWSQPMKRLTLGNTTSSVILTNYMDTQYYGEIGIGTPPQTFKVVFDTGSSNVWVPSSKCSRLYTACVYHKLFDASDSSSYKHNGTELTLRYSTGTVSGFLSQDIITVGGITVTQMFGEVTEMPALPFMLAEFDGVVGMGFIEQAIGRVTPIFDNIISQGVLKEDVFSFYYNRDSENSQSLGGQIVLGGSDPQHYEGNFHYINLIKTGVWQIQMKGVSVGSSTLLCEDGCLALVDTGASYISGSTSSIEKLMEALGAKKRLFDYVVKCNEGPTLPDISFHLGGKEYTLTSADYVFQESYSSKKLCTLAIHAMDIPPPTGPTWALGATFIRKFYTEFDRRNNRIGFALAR

[3] = target: Cathepsin D (Homo sapiens, UniProt P07339); assay: Compound was tested for inhibition of cathepsin D
[4] = target: T1, Beta-secretase 1; assay: Compound (>1 mM ) was tested for inhibition of Beta-secretase 1 (BACE 1) expressed in insect cell using baculovirus; Not inhibited

Cathepsin D, sequence (P07339 65-162 limits assumed): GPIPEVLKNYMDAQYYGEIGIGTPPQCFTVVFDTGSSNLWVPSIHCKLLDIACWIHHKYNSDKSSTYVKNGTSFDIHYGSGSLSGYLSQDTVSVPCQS
Cathepsin D, sequence (P07339 169-412 limits assumed): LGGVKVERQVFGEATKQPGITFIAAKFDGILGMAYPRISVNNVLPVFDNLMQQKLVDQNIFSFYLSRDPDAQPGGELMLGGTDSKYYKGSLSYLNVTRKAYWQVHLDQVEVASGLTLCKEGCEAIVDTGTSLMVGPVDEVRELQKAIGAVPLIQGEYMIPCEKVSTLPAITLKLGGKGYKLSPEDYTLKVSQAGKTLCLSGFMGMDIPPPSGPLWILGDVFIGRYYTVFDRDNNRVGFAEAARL
T1 sequence (P56817 whole entry): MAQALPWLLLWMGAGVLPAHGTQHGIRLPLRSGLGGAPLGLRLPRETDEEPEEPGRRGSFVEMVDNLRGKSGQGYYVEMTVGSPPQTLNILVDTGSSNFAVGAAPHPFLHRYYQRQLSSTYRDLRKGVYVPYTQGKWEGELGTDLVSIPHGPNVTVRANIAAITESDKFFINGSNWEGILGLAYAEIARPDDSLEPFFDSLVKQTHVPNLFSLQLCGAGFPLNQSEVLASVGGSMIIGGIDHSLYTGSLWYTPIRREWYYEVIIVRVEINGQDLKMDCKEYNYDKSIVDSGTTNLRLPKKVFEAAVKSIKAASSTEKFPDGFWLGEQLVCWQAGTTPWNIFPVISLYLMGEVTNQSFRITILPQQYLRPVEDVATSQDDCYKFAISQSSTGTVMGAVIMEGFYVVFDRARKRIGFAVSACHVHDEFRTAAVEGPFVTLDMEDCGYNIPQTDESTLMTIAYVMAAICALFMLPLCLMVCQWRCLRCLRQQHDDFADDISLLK

Row | Ki [1] | Ki [2] | Ki [3] | Activity [4] | Structure (SMILES)
1 | 1.7 µM | 73.6 µM | 79.7 µM | – | CC(C)CNC(=O)[C@H](CCC(=O)O)C[C@H](O)[C@H](Cc1ccccc1)NC(=O)C[C@H](NC(=O)CC(C)C)C(=O)O
2 | 2.7 µM | 1.9 µM | 2.2 µM | – | CC(=O)OCC[C@H](C[C@H](O)[C@H](Cc1ccccc1)NC(=O)C[C@H](NC(=O)CC(C)C)C(=O)O)C(=O)NCC(C)C
3 | – | – | – | No inhibition | CC(C)CC(=O)N[C@H](C(=O)N[C@H](C(=O)N[C@@H](CC(C)C)[C@@H](O)CC(=O)N[C@@H](C)C(=O)N[C@@H](CC(C)C)[C@@H](O)CC(=O)O)C(C)C)C(C)C
4 | 1.9 µM | 10.9 µM | 12.5 µM | – | CC(C)CNC(=O)[C@H](CCO)C[C@H](O)[C@H](Cc1ccccc1)NC(=O)C[C@H](NC(=O)CC(C)C)C(=O)O
5 | 69.5 µM | 24.4 µM | 28 µM | – | CCC[C@H](C[C@H](O)[C@H](Cc1ccccc1)NC(=O)C[C@H](NC(=O)CC(C)C)C(=O)O)C(=O)NCC(C)C
